Reference: patent publication US12668610B2, “Compounds for drug delivery across blood-brain barrier” (University of Houston System, priority 2020, dated 2026)
Numbered stars: 1 amine (or outer) side, 2 acyl side, 3 side chain; on linkers, the order of the positions; unused ones are H or OH. Square brackets hold non-standard residues; d marks the D form. Peptide text beside a SMILES is read from it. N((CH2)3OiPr)Gly = CC(C)OCCCNCC(=O)O; X1 = CC(c1ccccc1)N(CC(=O)[*:2])[*:1]; Nleu = CC(C)CNCC(=O)O; Nlys = NCCCCNCC(=O)O; Nme = COCCNCC(=O)O

Tests used:
[1] = Stability in human plasma (HPLC); format: in vitro ADME; conditions: 37° C.
Method: (§1) HPLC Analysis. RP-HPLC was conducted on an LC-20A liquid chromatographic system (Shimadzu, Japan). In detail, the HPLC system consisted of a Shimadzu LC-20AD solvent delivery pump, a SIL-20A auto-sampler, and a Shimadzu SPD-M20A UV/Vis detector. The TRBP-6 peptoid was analyzed using a Phenomenex® HPLC C18 column (250×4.6 mm, 5 μm) at room temperature. The mobile phase was composed of solvent A (0.1% TFA in water) and solvent B (0.1% TFA in acetonitrile, TFA: trifluoroacetic acid). An aliquot of 10 μl of TRBP-6 peptoid solution (350 μg/ml in ACN:H2O, 1:1) was injected into HPLC system. An isocratic method with flow rate of 1 ml/min was applied in 30% B for 15 min for TRBP-6. The detection wavelength was set to 220 nm. The data was acquired and processed with LabSolutions version 5.92. HPLC chromatograms for TRBP-6 are shown in FIG. 10, namely (A) PDA Chromatogram, and (B) PDA Spectrum. FIG. 10(A) is a RP-HPLC chromatogram of TRBP-6 (retention time tR=4.904 min) obtained by above HPLC method to illustrate the purity of the synthesized TRBP-6. FIG. 10(B) is a plot of UV absorbance spectrum of TRBP-6 obtained from injecting TRBP-6 into the HPLC column to show the wavelength of maximum UV absorbance of TRBP-6 (λmax=216 nm). Stability in PBS pH 7.4.
TRBP-6 peptoid solution with a concentration of 5 mg/ml in PBS was diluted to 1.4 mg/ml by human plasma. After incubation at 37° C. in human plasma for 0, 1, 3, 6, 9 and 24 h, 50 μl of the mixture was quenched with 150 μl of cold acetonitrile and centrifuged at […]×20 min. The supernatant (100 μl) was detected by HPLC. The assay was performed in triplicates.

[2] = Solubility in water by titration; format: physicochemical; conditions: deionised water; DI water
Method: Solubility of TRBP-6 peptoid was determined by titration. Briefly, a precise amount (5 mg) of TRBP-6 was measured in a transparent 1.5 ml Eppendorf tube. DI water was added dropwise (˜5 μl/drop) into the tube until the solids were completely dissolved and the solution was clear. Solubility was calculated as the ratio of quantity of peptoid and the total volume of DI water. […] The solubility of TRBP6 in water is shown below.

transferrin receptor = molecular target: T1, transferrin receptor (Homo sapiens, UniProt P02786); assay: In vitro pull-down assay with compound-conjugated beads and western blot; format: binding; conditions: lysates of transferrin receptor positive or negative HeLa cells, compound-conjugated beads, 4° C. overnight, western blot anti-hTfR
T1 construct: Cell lysates from HeLa cells with transferrin receptor expression or transferrin receptor knockdown were extracted using RIPA buffer; endogenous in cells; host or cells: HeLa (ATCC)
T1 sequence (P02786 whole entry): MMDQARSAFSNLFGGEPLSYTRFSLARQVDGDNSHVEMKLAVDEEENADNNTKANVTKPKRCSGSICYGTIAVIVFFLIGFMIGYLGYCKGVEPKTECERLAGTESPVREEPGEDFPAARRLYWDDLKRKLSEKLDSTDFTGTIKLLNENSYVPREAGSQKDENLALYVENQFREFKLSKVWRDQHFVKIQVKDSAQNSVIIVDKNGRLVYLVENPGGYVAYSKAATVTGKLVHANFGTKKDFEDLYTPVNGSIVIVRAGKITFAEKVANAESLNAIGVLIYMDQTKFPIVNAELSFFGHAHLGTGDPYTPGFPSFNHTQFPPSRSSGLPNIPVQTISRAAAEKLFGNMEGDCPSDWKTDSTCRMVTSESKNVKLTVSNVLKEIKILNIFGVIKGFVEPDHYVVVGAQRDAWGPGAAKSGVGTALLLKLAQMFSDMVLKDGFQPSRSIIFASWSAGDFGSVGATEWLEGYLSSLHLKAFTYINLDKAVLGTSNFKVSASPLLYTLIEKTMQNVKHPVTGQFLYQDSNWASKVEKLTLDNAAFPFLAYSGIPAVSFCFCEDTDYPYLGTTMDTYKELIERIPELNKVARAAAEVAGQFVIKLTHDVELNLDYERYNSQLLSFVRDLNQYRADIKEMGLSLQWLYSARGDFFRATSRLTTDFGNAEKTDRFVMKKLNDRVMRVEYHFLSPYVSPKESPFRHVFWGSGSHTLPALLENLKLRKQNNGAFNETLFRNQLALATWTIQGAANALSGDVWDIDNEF
Method: The binding of three exemplary compounds to the transferrin receptor was confirmed in a pull-down assay. Cell lysates from transferrin receptor positive or negative HeLa cells were extracted using RIPA buffer, and subsequently incubated with TRBP3, TRBP5, or TRBP6 conjugated beads at 4° C. overnight. The beads were then washed with RIPA buffer for 3 times, and the binding proteins were eluted with 1% SDS. The yielded lysates were then applied onto 10% SDS-PAGE gel and subjected to western blotting analysis with antibody against transferrin receptor.
Cell lysates from HeLa cells with transferrin receptor expression or transferrin receptor knockdown were extracted using RIPA buffer (Alfa Aesar) supplemented with protease inhibitors (Roche), and subsequently incubated with TRBP6, TRBP3, and TRBP5 conjugated beads at 4° C. overnight. The beads were then washed with RIPA buffer for 3 times, and the binding proteins were eluted with 1% SDS at 95° C. for 5 mins. The yielded lysates were then mixed with 4× Laemmli Sample Buffer (loading buffer) (Bio-Rad). […]
Cells were lysed in RIPA buffer (1% NP-40, 0.5% sodium deoxycholate, 0.1% SDS in PBS). […] Protein concentration was determined by Bio-Rad DC protein assay (Bio-Rad). […] Signals of targeted proteins were detected by the Immun-Star HRP peroxide Luminol/Enhancer (Bio-Rad) and recorded on ChemiDoc Touch Imaging System (Bio-Rad). […]

[3] = In vivo biodistribution study of Cy5.5-labeled peptoids in CD-1 mice (IVIS imaging)
Method: The activity of these compounds to deliver Cy5.5 fluorescent dye into the brains of mice was investigated. […] The Cy5.5 labeled peptoids or Cy5.5-Ang peptide were injected intravenously to CD-1 mice (25 nmol/mouse, n=4 per compound) and imaged using IVIS imager. The mice were sacrificed at 30 minutes, the heart was perfused with 10 mL of PBS, blood and organs were collected for ex vivo imaging.
Biodistribution of Cy5.5-labeled peptoids and control Cy5.5-Ang was performed on healthy female CD-1 mice (6-8 weeks old, n=4 per group). Fluorescently labeled peptoids and Cy5.5-Ang were prepared in 100 μl saline (25 nmol of Cy5.5-TRBP in 100 μl saline per mouse) were injected intravenously via tail vein into mice. The whole body imaging of fluorescence signal was measured at 5, 15 and 30 min using the IVIS Spectrum in vivo imaging system (PerkinElmer). At 30 min, mice were euthanized and brain was perfused with 10 mL of 10% heparinized PBS at […] flow rate via left ventricle of mice. A small incision to the right atrium was made using iris scissors before perfusion. After brain perfusion, the vital organs (brain, heart, lung, liver, spleen also blood and plasma) were collected for ex vivo imaging. The fluorescence intensity was measured at wavelength with an excitation of 660 nm and maximum emission at 710 nm. The organ region of interest (ROI) was measured and analyzed using Living image software. Data of the experiments were expressed as mean±SD and analyzed by One-way ANOVA with Dunnett's multiple comparison test. The statistical analysis was done in Graphpad Prism (Graphpad Inc., version 7.04), the results were considered statistically significant if p<0.05.

[4] = Stability in PBS pH 7.4 (HPLC); format: physicochemical; conditions: 37° C., 350 μg/ml
Method: as §1
TRBP-6 peptoid was diluted with PBS pH 7.4 to 350 μg/ml. The solution was incubated in the water bath at 37° C. with gentle shaking. The aliquots (50 μl) were withdrawn from the TRBP-6 solution at different time intervals (0, 1, 3, 6, 9, 24 h). At each time point, 10 μl of solution was injected into HPLC for analysis. To examine the reproducibility, the experiments were carried out in triplicate.

[5] = tested on: transferrin receptor positive HeLa cells; assay: Validation of on-bead two-color binding with resynthesized compound on TentaGel beads; format: cell-based, human; conditions: 1.0 hour at room temperature, fluorescence microscope
Method: The on-bead two-color combinatorial cell-screening was validated by resynthesizing the compounds on tentagel beads and incubating them with transferrin receptor positive HeLa cells and transferrin receptor negative Hela cells separately as well as a mixture of these cells. The beads specifically bound with the transferrin receptor positive HeLa cells. Results are shown in FIG. 3, with the cells shown on the left column and the beads containing TRBP6 after incubation with the cells shown in the right column.
Nearly 50,000 peptoid library beads were washed two times in DMEM medium containing 10% FBS (media) and then incubated in 1.0 ml (DMEM+10% FBS) for 1.0 hour in a polypropylene tube. Transferrin receptor positive HeLa cells and transferrin receptor negative HeLa cells were removed from culture plates with GIBCO enzyme free cell dissociation buffer 2.0 ml per plate for 20 minutes at 37° C. Cells were washed and suspended in DMEM+10% FBS media. Cells were counted and distributed in 1.5 ml microcentrifuge tubes with 1.0×10^6 cells in 1.0 ml of media. Then the cell labeling procedure was conducted as follows: 1.0 μl each of Qtracker reagent A and B were mixed in a 1.5 ml microcentrifuged tubes and incubated for 5.0 minutes at room temperature. […] Labeled cells were visualized with long-pass filter of BX-51 fluorescence microscope (Olympus, PA) with a color camera. […]

SMILES: COCCN(CC(=O)NC(CCCCN)C(=O)NC(CCSC)C(N)=O)C(=O)CN(CC(C)C)C(=O)CN(C(=O)CN(CCCCN)C(=O)CN(CCCOC(C)C)C(=O)CNCCCCN)C(C)c1ccccc1 (stereo not shown) [TRBP6] (H-[Nlys][N((CH2)3OiPr)Gly][Nlys][X1][Nleu][Nme]KM-NH2; configuration not given here)
- TRBP-6 amount remains (%) in human plasma ([1]; 0 h, 1.4 mg/ml): 100.0 ± 1.2%
- stability (overall statement) ([1]; PBS pH 7.4 and human plasma, up to 24 h): excellent stability
- remaining at 1 h, 1.4 mg/ml ([1]; human, human plasma, 1 h, 1.4 mg/ml, read-out: TRBP-6 amount remains (%) in human plasma): 99.5 ± 3.5%
- remaining at 3 h, 1.4 mg/ml ([1]; human, human plasma, 3 h, 1.4 mg/ml, read-out: TRBP-6 amount remains (%) in human plasma): 94 ± 2.1%
- remaining at 6 h, 1.4 mg/ml ([1]; human, human plasma, 6 h, 1.4 mg/ml, read-out: TRBP-6 amount remains (%) in human plasma): 93 ± 5.3%
- remaining at 9 h, 1.4 mg/ml ([1]; human, human plasma, 9 h, 1.4 mg/ml, read-out: TRBP-6 amount remains (%) in human plasma): 92 ± 2.9%
- remaining at 24 h, 1.4 mg/ml ([1]; human, human plasma, 24 h, 1.4 mg/ml, read-out: TRBP-6 amount remains (%) in human plasma): 90.3 ± 4.7%
- solubility [2]: > 496 mg/mL
- binding to the transferrin receptor in pull-down assay (transferrin receptor): confirmed
- efficacy of brain delivery compared with other compounds including Angiopep-2 (Ang) peptide ([3]; 25 nmol/mouse intravenously): much higher than other compounds
- delivery of Cy5.5 into the brain ([3]; 25 nmol/mouse intravenously, imaging 5, 15, 30 min and ex vivo after perfusion): effectively delivered Cy5.5 into the brain
- efficiency in brain delivery compared with other compounds including Ang peptide ([3]; 30 minutes after injection, 25 nmol/mouse i.v.): superior efficiency than other compounds
- TRBP-6 amount remains (%) in PBS pH 7.4 ([4]; 0 h): 100.0 ± 2.4%
- TRBP-6 amount remains (%) in PBS pH 7.4 ([4]; 1 h): 98.9 ± 6.5%
- TRBP-6 amount remains (%) in PBS pH 7.4 ([4]; 3 h): 95.5 ± 3.3%
- TRBP-6 amount remains (%) in PBS pH 7.4 ([4]; 6 h): 94.6 ± 2.3%
- TRBP-6 amount remains (%) in PBS pH 7.4 ([4]; 9 h): 92.7 ± 0.2%
- TRBP-6 amount remains (%) in PBS pH 7.4 ([4]; 24 h): 91.3 ± 3.8%
- binding of beads to transferrin receptor positive (red) vs negative (green) HeLa cells [5]: only showed binding with red cells but not with green cells
